Source: patent US20220016277A1, “MACROCYCLIC COMPLEXES OF RADIONUCLIDES AND THEIR USE IN RADIOTHERAPY OF CANCER” (Cornell University, priority 2018, published 2022)

Experiment: Organ distribution of ^225Ac complexes following intravenous injection in mice
Format: in vivo, C57BL/6 mice
Description: In Vivo Biodistribution of ^225Ac Complexes of Macropa and DOTA. All experiments were approved by the Institutional Animal Care Committee (IACC) of the University of British Columbia and were performed in accordance with the Canadian Council on Animal Care Guidelines. A total of 9 female C57BL/6 mice (6-8 weeks old, 20-25 g) were used for the biodistribution study of each radiometal complex, n=3 for each time point.
Macropa (100 μL of a 1 mg/mL solution in NH4OAc) was diluted with 387 μL of NH4OAc (1 M, pH 7), and an aliquot (203 μL) of ^225Ac(NO3)3 (˜157 kBq) was then added; the pH of this solution was adjusted to 6.5-7 by the addition of 1 M NaOH (210 μL, trace metal grade). After 5 min at ambient temperature, the reaction solution was analyzed by TLC (0.4 M pH 4 sodium citrate as the eluent), which confirmed >95% radiochemical yield. The reaction was allowed to proceed overnight, and the radiochemical yield was again confirmed to be >95% the following morning. At this time, mice were anesthetized by 2% isoflurane, and approximately 100 μL (10-15 kBq) of the [^225Ac(macropa)]^+ complex were injected into the tail vein of each mouse. After injection, mice were allowed to recover and roam freely in their cages, and were euthanized by CO2 inhalation at 15 min, 1 h, or 5 h (n=3 at each time point) post-injection. Blood was collected by cardiac puncture and placed into an appropriate test tube for scintillation counting. Tissues collected included heart, liver, kidneys, lungs, small intestine, large intestine, brain, bladder, spleen, stomach, pancreas, bone, thyroid, tail, urine, and feces. Tissues were weighed and then counted with a calibrated gamma counter (Packard, Cobra II model 5002) using three energy windows: 60-120 keV (window A), 180-260 keV (window B), and 400-480 keV (window C). Counting was performed both immediately after sacrifice and after 7 days; counts were decay corrected from the time of injection and then converted to the percentage of injected dose (% ID) per gram of tissue (% ID/g). […]
The biodistribution studies of [^225Ac(DOTA)]^− and ^225Ac(NO3)3 were carried out as described above for [^225Ac(macropa)]^+, with the following modifications. [^225Ac(DOTA)^− was prepared by adding ^225Ac(NO3)3 (338 μL, 1.1 MBq) to a solution of DOTA (100 μg, 20 mg/mL in H2O) in NH4OAc (467 μL, 0.15 M, pH 7). The pH of the solution was adjusted to 7 using NH4OAc (150 μL, 1 M, pH 7) and the solution was heated at 85° C. for 45 min. RCY >99% was confirmed by TLC as described above. [^225Ac(DOTA)]^− was diluted with saline to a final concentration of 0.05 MBq/100 μL, and 100 μL were injected into each mouse. ^225Ac(NO3)3 (˜58 μL, 0.4 MBq) was diluted and injected in the same manner as [^225Ac(DOTA)]^−. One mouse that was to be euthanized at the 5 h time point in the [^225Ac(DOTA)]^− study died shortly after injection. In the same manner, one mouse that was to be euthanized at the 1 h time point in the ^225Ac(NO3)3 study died.
The in vivo stability [^225Ac(macropa)]^+ was examined by comparing its biodistribution to those of ^225Ac(NO3)3 and [^225Ac(DOTA)]^−. C57BL/6 mice were injected via tail vein with 10-50 kBq of each radiometal complex and were sacrificed after 15 min, 1 h, or 5 h. The amount of ^225Ac retained in each organ was quantified by gamma counting and reported as the percent of injected dose per gram of tissue (% ID/g). The results of these studies are compiled in Tables 1-3. Inadequate stability of an ^225Ac complex leading to the loss of radioisotope in vivo is manifested by the accumulation of ^225Ac in the liver, spleen, and bone of mice.^[11,12,32] […] The biodistribution profile of [^225Ac(macropa)]^+ (FIG. 3B) differs markedly from that of ^225Ac(NO3)3. […] Its biodistribution profile was similar to that of [^225Ac(DOTA)]^− (FIG. 3C), which has been previously shown to retain ^225Ac^3+ in vivo.^[7]

[1] = 15 min post i.v. injection, energy window A (60-120 keV)
[2] = 15 min post i.v. injection, energy window B (180-260 keV)
[3] = 15 min post i.v. injection, energy window C (400-480 keV)
[4] = 1 h post i.v. injection, energy window A (60-120 keV)
[5] = 1 h post i.v. injection, energy window B (180-260 keV)
[6] = 1 h post i.v. injection, energy window C (400-480 keV)
[7] = 5 h post i.v. injection, energy window A (60-120 keV)
[8] = 5 h post i.v. injection, energy window B (180-260 keV)

O=C([O-])CN1CCN(CC(=O)[O-])CCN(CC(=O)[O-])CCN(CC(=O)[O-])CC1.[225Ac+3] [[^225Ac(DOTA)]^−]
Organ distribution: bladder [1]: 48.2703 % ID/g
Organ distribution: blood [1]: 5.2881 % ID/g
Organ distribution: bone (femur + joint) [1]: 2.6298 % ID/g
Organ distribution: brain [1]: 0.2655 % ID/g
Organ distribution: feces [1]: 6.2730 % ID/g
Organ distribution: heart [1]: 2.3335 % ID/g
Organ distribution: kidneys [1]: 27.6566 % ID/g
Organ distribution: large intestines [1]: 2.3348 % ID/g
Organ distribution: liver [1]: 2.2520 % ID/g
Organ distribution: lungs [1]: 5.7556 % ID/g
Organ distribution: pancreas [1]: 1.5090 % ID/g
Organ distribution: small intestines [1]: 2.6370 % ID/g
Organ distribution: spleen [1]: 2.5905 % ID/g
Organ distribution: stomach [1]: 2.7440 % ID/g
Organ distribution: tail [1]: 8.8606 % ID/g
Organ distribution: thyroids [1]: −5.7725 % ID/g
Organ distribution: urine [1]: 1467.9186 % ID/g
Organ distribution: bladder [2]: 54.4696 % ID/g
Organ distribution: blood [2]: 5.6357 % ID/g
Organ distribution: bone (femur + joint) [2]: 3.0357 % ID/g
Organ distribution: brain [2]: 0.2735 % ID/g
Organ distribution: feces [2]: 1.0222 % ID/g
Organ distribution: heart [2]: 2.7276 % ID/g
Organ distribution: kidneys [2]: 28.0858 % ID/g
Organ distribution: large intestines [2]: 2.5365 % ID/g
Organ distribution: liver [2]: 2.1817 % ID/g
Organ distribution: lungs [2]: 6.0147 % ID/g
Organ distribution: pancreas [2]: 1.4929 % ID/g
Organ distribution: small intestines [2]: 2.5009 % ID/g
Organ distribution: spleen [2]: 2.9076 % ID/g
Organ distribution: stomach [2]: 2.7311 % ID/g
Organ distribution: tail [2]: 9.4746 % ID/g
Organ distribution: thyroids [2]: 1.6601 % ID/g
Organ distribution: urine [2]: 1635.4394 % ID/g
Organ distribution: bladder [3]: 76.0987 % ID/g
Organ distribution: blood [3]: 7.2941 % ID/g
Organ distribution: bone (femur + joint) [3]: 4.4224 % ID/g
Organ distribution: brain [3]: 0.1588 % ID/g
Organ distribution: feces [3]: 1.5693 % ID/g
Organ distribution: heart [3]: 2.5579 % ID/g
Organ distribution: kidneys [3]: 40.4489 % ID/g
Organ distribution: large intestines [3]: 3.8419 % ID/g
Organ distribution: liver [3]: 2.9046 % ID/g
Organ distribution: lungs [3]: 7.3872 % ID/g
Organ distribution: pancreas [3]: 1.0290 % ID/g
Organ distribution: small intestines [3]: 3.8916 % ID/g
Organ distribution: spleen [3]: 1.5598 % ID/g
Organ distribution: stomach [3]: 3.2425 % ID/g
Organ distribution: tail [3]: 13.4731 % ID/g
Organ distribution: thyroids [3]: −109.5394 % ID/g
Organ distribution: urine [3]: 2691.0615 % ID/g
Organ distribution: bladder [4]: 4.7351 % ID/g
Organ distribution: blood [4]: 0.1144 % ID/g
Organ distribution: bone (femur + joint) [4]: 0.4487 % ID/g
Organ distribution: brain [4]: 0.0224 % ID/g
Organ distribution: feces [4]: 0.2035 % ID/g
Organ distribution: heart [4]: 0.1012 % ID/g
Organ distribution: kidneys [4]: 1.4020 % ID/g
Organ distribution: large intestines [4]: 0.1229 % ID/g
Organ distribution: liver [4]: 0.2715 % ID/g
Organ distribution: lungs [4]: 0.1555 % ID/g
Organ distribution: pancreas [4]: 0.0743 % ID/g
Organ distribution: small intestines [4]: 1.7207 % ID/g
Organ distribution: spleen [4]: 0.0938 % ID/g
Organ distribution: stomach [4]: 0.1367 % ID/g
Organ distribution: tail [4]: 0.8091 % ID/g
Organ distribution: thyroids [4]: 2.3564 % ID/g
Organ distribution: urine [4]: 158.6102 % ID/g
Organ distribution: bladder [5]: 4.7141 % ID/g
Organ distribution: blood [5]: 0.1127 % ID/g
Organ distribution: bone (femur + joint) [5]: 0.4126 % ID/g
Organ distribution: brain [5]: 0.0248 % ID/g
Organ distribution: feces [5]: 0.2349 % ID/g
Organ distribution: heart [5]: 0.1378 % ID/g
Organ distribution: kidneys [5]: 1.2560 % ID/g
Organ distribution: large intestines [5]: 0.0813 % ID/g
Organ distribution: liver [5]: 0.2672 % ID/g
Organ distribution: lungs [5]: 0.1946 % ID/g
Organ distribution: pancreas [5]: 0.0746 % ID/g
Organ distribution: small intestines [5]: 1.8809 % ID/g
Organ distribution: spleen [5]: 0.0825 % ID/g
Organ distribution: stomach [5]: 0.1379 % ID/g
Organ distribution: tail [5]: 0.8973 % ID/g
Organ distribution: thyroids [5]: 2.6514 % ID/g
Organ distribution: urine [5]: 159.1628 % ID/g
Organ distribution: bladder [6]: 6.9149 % ID/g
Organ distribution: blood [6]: 0.1102 % ID/g
Organ distribution: bone (femur + joint) [6]: 0.5654 % ID/g
Organ distribution: brain [6]: 0.0380 % ID/g
Organ distribution: feces [6]: 0.4091 % ID/g
Organ distribution: heart [6]: 0.2857 % ID/g
Organ distribution: kidneys [6]: 1.4787 % ID/g
Organ distribution: large intestines [6]: 0.1381 % ID/g
Organ distribution: liver [6]: 0.2841 % ID/g
Organ distribution: lungs [6]: 0.2551 % ID/g
Organ distribution: pancreas [6]: 0.1730 % ID/g
Organ distribution: small intestines [6]: 2.0201 % ID/g
Organ distribution: spleen [6]: 0.2228 % ID/g
Organ distribution: stomach [6]: 0.1720 % ID/g
Organ distribution: tail [6]: 1.0280 % ID/g
Organ distribution: thyroids [6]: 3.5247 % ID/g
Organ distribution: urine [6]: 177.6788 % ID/g
Organ distribution: bladder [7]: 0.3551 % ID/g
Organ distribution: blood [7]: 0.0140 % ID/g
Organ distribution: bone (femur + joint) [7]: 0.2063 % ID/g
Organ distribution: brain [7]: 0.0213 % ID/g
Organ distribution: feces [7]: 5.5318 % ID/g
Organ distribution: heart [7]: 0.0664 % ID/g
Organ distribution: kidneys [7]: 0.6172 % ID/g
Organ distribution: large intestines [7]: 0.2026 % ID/g
Organ distribution: liver [7]: 0.1010 % ID/g
Organ distribution: lungs [7]: 0.0390 % ID/g
Organ distribution: pancreas [7]: 0.0677 % ID/g
Organ distribution: small intestines [7]: 0.0967 % ID/g
Organ distribution: spleen [7]: 0.1380 % ID/g
Organ distribution: stomach [7]: 0.0852 % ID/g
Organ distribution: tail [7]: 0.3057 % ID/g
Organ distribution: thyroids [7]: 3.6425 % ID/g
Organ distribution: urine [7]: 1.1612 % ID/g
Organ distribution: bladder [8]: 0.7521 % ID/g
Organ distribution: blood [8]: 0.0292 % ID/g
Organ distribution: bone (femur + joint) [8]: 0.1478 % ID/g
Organ distribution: brain [8]: 0.0513 % ID/g
Organ distribution: feces [8]: 3.3534 % ID/g
Organ distribution: heart [8]: 0.0879 % ID/g
Organ distribution: kidneys [8]: 0.6718 % ID/g
Organ distribution: large intestines [8]: 0.2527 % ID/g
Organ distribution: liver [8]: 0.2712 % ID/g
Organ distribution: lungs [8]: 0.1289 % ID/g
Organ distribution: pancreas [8]: 0.1266 % ID/g
Organ distribution: small intestines [8]: 0.2065 % ID/g
Organ distribution: spleen [8]: 0.0834 % ID/g
Organ distribution: stomach [8]: 0.1789 % ID/g
Organ distribution: tail [8]: 0.1634 % ID/g
Organ distribution: thyroids [8]: 16.2357 % ID/g
Organ distribution: urine [8]: 3.6967 % ID/g
